Where two headings read alike, the source gives them in different places.
Experiments:
45-bp dsDNA = assay: dsDNA intercalation fluorescence polarization assay (acridine orange); assay type: binding; conditions: for Polarization: compound at 30 µM
m-cGAS = m-cGAS (Mus musculus, UniProt Q8C6L5); assay: RapidFire mass spectrometry (RF-MS) cGAS activity assay, m-cGAS
h-cGAS [1] = target: T1, h-cGAS (Homo sapiens, UniProt Q8N884); assay: ATP-coupled luminescence (LUM, Kinase-Glo) high-throughput assay, h-cGAS; assay type: biochemical; design: His6-SUMO (N, cleaved yes); made in house; host or cells: E. coli BL21-CodonPlus(DE3)-RIL
T1 sequence (Q8N884 whole entry): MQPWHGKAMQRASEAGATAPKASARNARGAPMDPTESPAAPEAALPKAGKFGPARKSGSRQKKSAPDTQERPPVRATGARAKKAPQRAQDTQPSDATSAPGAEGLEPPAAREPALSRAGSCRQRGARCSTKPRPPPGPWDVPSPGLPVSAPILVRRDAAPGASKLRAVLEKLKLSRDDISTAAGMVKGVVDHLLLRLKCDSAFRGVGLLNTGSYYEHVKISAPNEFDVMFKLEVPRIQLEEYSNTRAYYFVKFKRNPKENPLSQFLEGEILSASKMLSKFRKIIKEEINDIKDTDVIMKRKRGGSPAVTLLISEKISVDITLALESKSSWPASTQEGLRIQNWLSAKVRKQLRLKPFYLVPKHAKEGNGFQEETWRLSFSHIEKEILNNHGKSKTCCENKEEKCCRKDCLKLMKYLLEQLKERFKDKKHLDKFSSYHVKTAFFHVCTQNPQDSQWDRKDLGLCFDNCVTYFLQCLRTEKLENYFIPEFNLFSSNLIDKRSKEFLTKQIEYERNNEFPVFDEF

h-cGAS [2] = target: T1, h-cGAS; assay: RapidFire mass spectrometry (RF-MS) cGAS activity assay, h-cGAS
[3] = IC50 m-cGAS, RF-MS, in-house synthesized compounds
[4] = m-cGAS IC50, RF-MS, freshly sourced vendor powder
[5] = IC50 h-cGAS, RF-MS, in-house synthesized compounds
[6] = h-cGAS IC50, RF-MS, freshly sourced vendor powder
[7] = library stock, ten half-dilutions from 25 µM, read-out: h-cGAS IC50 (LUM)

Chain of m-cGAS (Q8C6L5 whole entry): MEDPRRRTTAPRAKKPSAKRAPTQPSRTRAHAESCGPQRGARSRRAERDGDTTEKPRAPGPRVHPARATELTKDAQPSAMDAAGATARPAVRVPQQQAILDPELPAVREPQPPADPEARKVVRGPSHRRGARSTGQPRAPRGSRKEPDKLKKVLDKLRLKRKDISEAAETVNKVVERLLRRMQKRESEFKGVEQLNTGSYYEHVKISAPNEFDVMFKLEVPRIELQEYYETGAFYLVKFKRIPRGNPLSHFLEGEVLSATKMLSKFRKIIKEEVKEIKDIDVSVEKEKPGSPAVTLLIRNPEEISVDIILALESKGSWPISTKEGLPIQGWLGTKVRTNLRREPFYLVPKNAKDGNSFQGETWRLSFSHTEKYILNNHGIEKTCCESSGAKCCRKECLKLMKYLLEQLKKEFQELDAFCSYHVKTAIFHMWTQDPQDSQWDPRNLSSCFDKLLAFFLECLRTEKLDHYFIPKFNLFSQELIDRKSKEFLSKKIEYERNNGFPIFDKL

| SMILES | % Intercalation at 30 µM (45-bp dsDNA) | Polarization (45-bp dsDNA) | IC50 (m-cGAS; [3]) | IC50 (m-cGAS; [4]) | IC50 (h-cGAS [1]) | IC50 (h-cGAS [2]; [5]) | IC50 (h-cGAS [2]; [6]) | IC50 (h-cGAS [1]; [7]) | IC50 (m-cGAS) | IC50 (h-cGAS [2]) |
| --- | --- | --- | --- | --- | --- | --- | --- | --- | --- | --- |
| COCC(=O)N1CCc2[nH]c3c(Cl)cc(Cl)cc3c2C1 [G001] | -6.09% | 258 mP | 0.44 µM | 1.14 µM | 1.2 µM | 2.08 µM | 2.75 µM |  |  |  |
| O=C(Nc1ccc(Cl)cn1)c1[nH]ncc1[N+](=O)[O-] [J001] | -7.59% | 258 mP | 0.49 µM | 0.972 µM |  | 1.04 µM | 0.976 µM | 0.913 µM |  |  |
| O=C(Nc1cc(-c2ccccc2)ccn1)c1nnc[nH]1 [J073] |  |  | 4.32 µM |  |  |  |  |  |  |  |
| O=C(O)Cc1cc(I)c(Oc2cc(I)c(O)c(I)c2)c(I)c1 [RU-0001026_AA-001] | -15.3% | 274 mP |  | 29.2 µM |  |  | 11.9 µM | 6.16 µM |  |  |
| O=c1[nH]c2c(Cl)c(Cl)c(Cl)cc2o1 [RU-0002019_AA-001] | -9.27% | 260 mP |  | 11.6 µM |  |  | 8.1 µM | 3.9 µM |  |  |
| S=c1[nH]nc(-c2sc3ccccc3c2Cl)o1 [RU-0003433_AA-002] | -16.75% | 277 mP |  | 16.1 µM |  |  | 7.16 µM | 8.68 µM |  |  |
| FC(F)(F)c1nc2cc(Cl)cc(Cl)c2[nH]1 [RU-0005637_AA-001] | -3.44% | 248 mP |  | > 50 µM |  |  | 2.39 µM | 3.38 µM |  |  |
| N#Cc1c(C(F)(F)F)cc(=O)n2c1[nH]c1ccccc12 [RU-0006086_AA-001] | -13.31% | 268 mP |  | 17.9 µM |  |  | 1.05 µM | 0.128 µM |  |  |
| O=C(O)CN1C(=O)/C(=C\c2cc([N+](=O)[O-])cc(Br)c2O)SC1=S [RU-0010201_AA-001] | -18.01% | 278 mP |  | 5.77 µM |  |  | 3.02 µM | 1.55 µM |  |  |
| Oc1cccc2ccc(Nc3ccccn3)nc12 [RU-0010562_AA-001] | 10.31% | 220 mP |  | > 50 µM |  |  | 13.2 µM | 9.1 µM |  |  |
| O=C1NC(=S)S/C1=C\c1ccc(-c2ccccc2C(=O)O)o1 [RU-0020238_AA-001] | -24.96% | 292 mP |  | 9.65 µM |  |  | 3.78 µM | 3.59 µM |  |  |
| Cc1c2c(nc3cc4c(cc13)OCO4)CCc1ccccc1-2 [RU-0093754_AQ-001] | -2.1% | 247 mP |  | > 50 µM |  |  | 23.1 µM | 9.35 µM |  |  |
| CCC(=O)Nc1sc2c(c1-c1nc3ccccc3s1)CCN(CC)C2 [RU-0131894_AQ-001] | 40.34% | 159 mP |  | 7.51 µM |  |  | 0.965 µM | 1.09 µM |  |  |
| CNC(=O)CSc1nc(=O)n2nc(C)c(-c3ccccc3)c2[nH]1 [RU-0142869_AA-001] | -8.43% | 260 mP |  | > 50 µM |  |  | 4.78 µM | 9.12 µM |  |  |
| Clc1ccc2c(-n3ccnc3)ccnc2c1 [RU-0166197_AA-001] | -4.04% | 250 mP |  |  | 6.49 µM |  |  |  | 10.8 µM | 2.64 µM |
| O=c1c(/C=N\C2CC2)c(-c2ccccc2)[nH]n1-c1nc2ccccc2s1 [RU-0166710_AA-001] | -5.01% | 252 mP |  | > 50 µM |  |  | 5.27 µM | 7.69 µM |  |  |
| CCC/N=C\c1c(-c2ccccc2)[nH]n(-c2nc3ccccc3s2)c1=O [RU-0166755_AA-001] | -3.39% | 249 mP |  | > 50 µM |  |  | 12.8 µM | 7.29 µM |  |  |
| O=c1cc(Cc2ccccc2)[nH]c2c(-c3ccccc3)c(C(F)(F)F)nn12 [RU-0168658_AA-001] | -8.74% | 260 mP |  | > 50 µM |  |  | 1.13 µM | 1.63 µM |  |  |

— article PMC6529454, “Development of human cGAS-specific small-molecule inhibitors for repression of dsDNA-triggered interferon expression” (Nature Communications, 2019)
